In ChEMBL document CHEMBL5247653, “Discovery of Clinical Candidate ACT-777991, a Potent CXCR3 Antagonist for Antigen-Driven and Inflammatory Pathologies” (J Med Chem, 2023):
Active and inactive are the calls of the source. The calls are words filed in the database; no cut-off is given here.

Tests used:
[1] = target: Voltage-gated inwardly rectifying potassium channel KCNH2 (Homo sapiens, UniProt Q12809); test: Inhibition of human ERG stably expressed in CHO cells at -80 mV holding voltage by automated QPatch electrophysiological assay; format: toxicity, cell-based
[2] = Metabolic stability in dog liver microsomes assessed as intrinsic clearance at 1 uM and measured upto 15 mins in presence of NADPH regenerating system by LC-MS/MS analysis; format: ADME, Canis lupus familiaris, Microsome; settings: read-out: CLH
[3] = target: T1, C-X-C chemokine receptor type 3 (Rattus norvegicus, UniProt Q9JII9); test: Antagonist activity at rat CXCR3 expressed in CHO-K1 cells assessed as reduction in CXCL10 induced calcium flux by FLIPR method; format: cell-based
T1 sequence (Q9JII9 whole entry): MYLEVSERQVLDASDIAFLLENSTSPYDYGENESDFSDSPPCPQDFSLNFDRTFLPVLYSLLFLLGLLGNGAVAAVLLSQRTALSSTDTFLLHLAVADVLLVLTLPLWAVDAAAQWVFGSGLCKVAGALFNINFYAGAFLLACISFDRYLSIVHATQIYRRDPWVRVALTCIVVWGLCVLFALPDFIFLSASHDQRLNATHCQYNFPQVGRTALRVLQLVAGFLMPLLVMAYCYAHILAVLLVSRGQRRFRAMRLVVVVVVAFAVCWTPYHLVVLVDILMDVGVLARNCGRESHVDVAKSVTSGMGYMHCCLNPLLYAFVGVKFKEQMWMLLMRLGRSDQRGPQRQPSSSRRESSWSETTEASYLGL

[4] = target: C-X-C chemokine receptor type 3 (Canis lupus familiaris, UniProt Q5KSK8); test: Antagonist activity at dog CXCR3 expressed in CHO-K1 cells assessed as reduction in CXCL11 induced calcium flux by FLIPR method; format: cell-based
Sequence of C-X-C chemokine receptor type 3 (Canis lupus familiaris, UniProt Q5KSK8) (Q5KSK8 whole entry): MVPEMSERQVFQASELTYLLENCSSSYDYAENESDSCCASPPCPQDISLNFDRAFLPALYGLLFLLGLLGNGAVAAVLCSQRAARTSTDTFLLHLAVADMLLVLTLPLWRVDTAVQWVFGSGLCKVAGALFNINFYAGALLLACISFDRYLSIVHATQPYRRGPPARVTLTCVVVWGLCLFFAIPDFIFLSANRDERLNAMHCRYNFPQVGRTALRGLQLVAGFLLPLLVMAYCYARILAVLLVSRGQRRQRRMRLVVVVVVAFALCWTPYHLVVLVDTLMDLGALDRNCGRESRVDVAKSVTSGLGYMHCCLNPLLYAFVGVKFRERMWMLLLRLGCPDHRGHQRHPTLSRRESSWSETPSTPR

[5] = target: T2, C-X-C chemokine receptor type 3 (Homo sapiens) (UniProt P49682); test: Binding affinity to human CXCR3 expressed in CHO-K1 cell membrane assessed as dissociation rate constant (koff) using tritium-labeled ligand by […] assay; format: cell membranes; settings: filed as antagonist
T2 sequence (whole entry): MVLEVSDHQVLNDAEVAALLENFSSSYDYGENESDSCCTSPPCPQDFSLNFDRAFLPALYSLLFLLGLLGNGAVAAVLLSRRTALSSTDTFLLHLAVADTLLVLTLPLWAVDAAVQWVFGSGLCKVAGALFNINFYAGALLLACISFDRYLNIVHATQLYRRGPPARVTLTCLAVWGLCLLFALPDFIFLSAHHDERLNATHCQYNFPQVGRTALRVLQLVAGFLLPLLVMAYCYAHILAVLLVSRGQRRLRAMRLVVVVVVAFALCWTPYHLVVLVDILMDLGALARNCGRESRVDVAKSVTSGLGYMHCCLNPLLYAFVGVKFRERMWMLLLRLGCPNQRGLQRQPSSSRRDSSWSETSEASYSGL

[6] = target: T1, C-X-C chemokine receptor type 3; test: Antagonist activity at CXCR3 in Wistar rat whole blood assessed as receptor internalization incubated for 30 mins in presence of CXCL10 by flow cytometric analysis; format: tissue-based
[7] = target: T3, C-X-C chemokine receptor type 3 (Homo sapiens, UniProt P49682); test: Antagonist activity at CXCR3 in human whole blood assessed as receptor internalization incubated for 30 mins in presence of CXCL10 by flow cytometric analysis; format: tissue-based
T3 sequence (P49682 whole entry): T2 sequence (whole entry)

[8] = target: fMet-Leu-Phe receptor (Homo sapiens) (UniProt P21462); test: Binding affinity to FPR1 (unknown origin) at 10 uM by radioligand binding assay
Sequence of fMet-Leu-Phe receptor (Homo sapiens) (P21462 whole entry): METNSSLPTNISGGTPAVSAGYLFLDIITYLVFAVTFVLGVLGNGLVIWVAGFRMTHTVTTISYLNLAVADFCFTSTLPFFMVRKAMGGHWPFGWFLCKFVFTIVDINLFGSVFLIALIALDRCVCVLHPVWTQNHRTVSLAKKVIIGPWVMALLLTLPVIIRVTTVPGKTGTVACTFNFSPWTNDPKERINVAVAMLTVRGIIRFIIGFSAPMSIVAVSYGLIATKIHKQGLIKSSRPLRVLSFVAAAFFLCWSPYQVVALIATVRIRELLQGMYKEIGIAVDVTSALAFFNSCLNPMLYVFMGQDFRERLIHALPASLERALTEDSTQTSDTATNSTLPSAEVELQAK

[9] = target: C3a anaphylatoxin chemotactic receptor (Homo sapiens) (UniProt Q16581); test: Binding affinity to C3aR1 (unknown origin) at 10 uM by radioligand binding assay
Sequence of C3a anaphylatoxin chemotactic receptor (Homo sapiens) (Q16581 whole entry): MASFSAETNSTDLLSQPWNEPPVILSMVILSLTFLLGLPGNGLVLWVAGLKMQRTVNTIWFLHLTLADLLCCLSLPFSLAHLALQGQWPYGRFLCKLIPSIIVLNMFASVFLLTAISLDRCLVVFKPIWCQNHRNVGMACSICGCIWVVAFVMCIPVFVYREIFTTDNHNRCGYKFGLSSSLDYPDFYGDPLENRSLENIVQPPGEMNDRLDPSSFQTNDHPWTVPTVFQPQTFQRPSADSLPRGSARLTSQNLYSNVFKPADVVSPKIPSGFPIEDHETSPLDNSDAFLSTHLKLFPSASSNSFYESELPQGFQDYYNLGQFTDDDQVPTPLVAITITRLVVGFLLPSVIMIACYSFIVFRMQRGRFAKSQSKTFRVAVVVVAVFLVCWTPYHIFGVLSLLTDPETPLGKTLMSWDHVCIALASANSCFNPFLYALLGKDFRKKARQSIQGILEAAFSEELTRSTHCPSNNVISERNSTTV

[10] = test system: Mus musculus; test: Antiinflammatory activity against LPS-induced DBA/1 mouse model assessed as reduction in CXCR3+ CD8+ T cells infiltration into BAL at 0.006 to 2 microg/g, po bid preincubated for 3 days followed by LPS stimulation for 30 mins and measured after 3 days by flow cytometry; format: functional, organism-based; settings: T-cell, dose 0.006-2 µg/g, time 6.0 day
[11] = target: T4, C-X-C chemokine receptor type 3 (Mus musculus) (UniProt O88410); test: In vivo antagonist activity at CXCR3 in LPS-induced DBA/1 mouse model assessed as reduction in mouse CXCL10-mediated chemotaxis in CD8+ T cells at 0.02 microg/g, po bid preincubated for 3 days followed by LPS stimulation for 30 mins and measured after 3 days by flow cytometry; format: functional, organism-based; set-up: scale not given: the % may be the effect or the level left; settings: T-cell, dose 0.02 µg/g, time 6.0 day
T4 sequence (whole entry): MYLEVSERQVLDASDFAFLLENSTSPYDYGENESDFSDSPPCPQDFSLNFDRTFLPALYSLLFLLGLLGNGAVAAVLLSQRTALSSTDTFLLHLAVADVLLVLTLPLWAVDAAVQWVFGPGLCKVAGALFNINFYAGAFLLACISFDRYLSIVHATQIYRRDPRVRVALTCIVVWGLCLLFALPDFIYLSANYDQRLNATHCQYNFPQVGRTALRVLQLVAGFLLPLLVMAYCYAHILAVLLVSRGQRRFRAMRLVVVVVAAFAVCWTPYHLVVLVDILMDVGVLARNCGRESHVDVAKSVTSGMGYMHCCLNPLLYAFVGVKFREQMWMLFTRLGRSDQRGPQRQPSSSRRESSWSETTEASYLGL

[12] = Cmax in LPS-induced DBA/1 mouse plasma at 0.02 microg/g, po bid preincubated for 3 days followed by LPS stimulation for 30 mins and measured after 72 hrs by flow cytometry; format: ADME, organism-based; set-up: time 6 day, dose 0.02 µg/g, route po; settings: 0.02 µg/g
[13] = target: Cytochrome P450 2C9 (Homo sapiens, UniProt P11712); test: Time dependent inhibition of CYP2C9 (unknown origin); format: ADME
Sequence of Cytochrome P450 2C9 (P11712 whole entry): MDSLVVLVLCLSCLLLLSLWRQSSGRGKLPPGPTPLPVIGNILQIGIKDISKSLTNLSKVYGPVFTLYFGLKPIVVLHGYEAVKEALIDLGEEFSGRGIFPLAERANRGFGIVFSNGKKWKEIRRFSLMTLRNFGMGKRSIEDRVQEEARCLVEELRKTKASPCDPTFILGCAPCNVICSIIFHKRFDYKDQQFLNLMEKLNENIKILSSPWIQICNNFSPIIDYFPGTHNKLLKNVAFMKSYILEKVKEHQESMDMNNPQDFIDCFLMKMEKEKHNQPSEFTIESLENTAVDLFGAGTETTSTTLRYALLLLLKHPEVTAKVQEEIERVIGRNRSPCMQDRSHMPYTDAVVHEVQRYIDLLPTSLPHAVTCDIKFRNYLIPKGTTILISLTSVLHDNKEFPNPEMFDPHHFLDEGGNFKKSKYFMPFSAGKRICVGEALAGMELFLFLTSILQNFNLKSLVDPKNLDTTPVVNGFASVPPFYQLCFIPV

[14] = target: ATP-dependent translocase ABCB1 (Homo sapiens, UniProt P08183); test: Inhibition of human P-gp in dog MDCKII-MDR1 cells; format: ADME, cell-based
Sequence of ATP-dependent translocase ABCB1 (P08183 whole entry): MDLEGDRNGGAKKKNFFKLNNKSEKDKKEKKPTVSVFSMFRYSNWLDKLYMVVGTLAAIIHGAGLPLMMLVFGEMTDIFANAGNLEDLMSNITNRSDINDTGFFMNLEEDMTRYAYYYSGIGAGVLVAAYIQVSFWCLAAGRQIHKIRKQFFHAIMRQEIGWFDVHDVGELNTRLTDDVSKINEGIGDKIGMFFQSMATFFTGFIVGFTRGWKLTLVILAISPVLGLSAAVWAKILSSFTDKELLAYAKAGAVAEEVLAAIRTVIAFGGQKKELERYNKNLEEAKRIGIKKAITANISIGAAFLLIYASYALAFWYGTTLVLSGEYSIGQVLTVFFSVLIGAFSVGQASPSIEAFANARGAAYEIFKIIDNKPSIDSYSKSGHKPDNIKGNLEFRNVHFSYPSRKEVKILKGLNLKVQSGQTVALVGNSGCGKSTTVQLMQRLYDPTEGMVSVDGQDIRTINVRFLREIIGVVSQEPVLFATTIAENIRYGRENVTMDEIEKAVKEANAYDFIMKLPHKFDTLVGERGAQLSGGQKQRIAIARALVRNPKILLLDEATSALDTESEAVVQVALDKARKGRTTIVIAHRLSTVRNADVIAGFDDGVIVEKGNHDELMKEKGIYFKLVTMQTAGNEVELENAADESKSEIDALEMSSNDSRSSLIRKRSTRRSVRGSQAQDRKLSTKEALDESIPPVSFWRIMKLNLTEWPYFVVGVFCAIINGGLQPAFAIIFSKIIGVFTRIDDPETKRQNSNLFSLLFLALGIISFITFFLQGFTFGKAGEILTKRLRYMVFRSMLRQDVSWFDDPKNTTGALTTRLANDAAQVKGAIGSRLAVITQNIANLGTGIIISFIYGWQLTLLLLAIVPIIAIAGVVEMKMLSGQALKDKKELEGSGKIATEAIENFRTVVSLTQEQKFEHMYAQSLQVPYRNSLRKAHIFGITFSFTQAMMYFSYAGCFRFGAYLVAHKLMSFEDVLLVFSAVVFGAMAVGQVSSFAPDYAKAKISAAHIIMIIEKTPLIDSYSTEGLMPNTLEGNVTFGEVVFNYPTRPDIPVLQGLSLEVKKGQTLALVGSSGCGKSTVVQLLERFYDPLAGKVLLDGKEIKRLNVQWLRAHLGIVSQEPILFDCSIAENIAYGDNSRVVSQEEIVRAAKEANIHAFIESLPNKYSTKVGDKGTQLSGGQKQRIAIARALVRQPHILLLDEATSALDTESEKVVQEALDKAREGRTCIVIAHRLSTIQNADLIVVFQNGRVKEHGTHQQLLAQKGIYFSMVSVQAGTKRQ

[15] = target: Solute carrier organic anion transporter family member 1B1 (Homo sapiens, UniProt Q9Y6L6); test: Inhibition of human OATP1B1; format: ADME
Sequence of Solute carrier organic anion transporter family member 1B1 (Q9Y6L6 whole entry): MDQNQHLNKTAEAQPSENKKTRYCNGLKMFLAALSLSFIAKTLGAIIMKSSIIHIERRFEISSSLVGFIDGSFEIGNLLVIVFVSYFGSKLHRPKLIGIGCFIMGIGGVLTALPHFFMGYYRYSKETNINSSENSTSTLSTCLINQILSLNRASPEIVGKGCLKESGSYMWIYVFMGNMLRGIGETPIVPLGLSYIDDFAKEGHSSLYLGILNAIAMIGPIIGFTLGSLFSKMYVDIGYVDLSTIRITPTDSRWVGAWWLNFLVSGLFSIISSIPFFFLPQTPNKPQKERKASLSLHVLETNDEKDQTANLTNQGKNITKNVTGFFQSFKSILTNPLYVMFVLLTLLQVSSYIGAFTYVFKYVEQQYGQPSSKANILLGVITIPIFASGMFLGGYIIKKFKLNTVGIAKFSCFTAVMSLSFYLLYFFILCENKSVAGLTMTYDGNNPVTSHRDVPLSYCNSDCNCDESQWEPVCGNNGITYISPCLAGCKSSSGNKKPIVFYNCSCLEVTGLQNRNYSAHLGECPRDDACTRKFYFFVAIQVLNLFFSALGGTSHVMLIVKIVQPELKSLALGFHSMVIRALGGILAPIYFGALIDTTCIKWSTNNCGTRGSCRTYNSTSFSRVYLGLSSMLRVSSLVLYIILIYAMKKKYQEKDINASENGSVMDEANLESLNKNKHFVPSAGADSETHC

[16] = Metabolic stability in rat liver microsomes assessed as M3 metabolite formation at 1 uM and measured upto 15 mins in presence of NADPH regenerating system by LC-MS/MS analysis; format: ADME, Microsome; settings: 0.25 h
[17] = Metabolic stability in human hepatocyte assessed as M1 metabolite formation at 1 uM and measured upto 15 mins in presence of NADPH regenerating system by LC-MS/MS analysis; format: ADME, cell-based; settings: hepatocytes, 0.25 h
[18] = Metabolic stability in rat hepatocyte assessed as M2 metabolite formation at 1 uM and measured upto 15 mins in presence of NADPH regenerating system by LC-MS/MS analysis; format: ADME, cell-based; settings: hepatocytes, 0.25 h
[19] = Protein binding in mouse plasma assessed as fraction unbound at 20 ug/ml using 14C-labeled ligand by rapid equilibrium dialysis; format: ADME, cell-free; settings: at 20 µg/mL
[20] = Protein binding in rabbit plasma assessed as fraction unbound at 0.1 to 300 ug/ml using 14C-labeled ligand by rapid equilibrium dialysis; format: ADME, cell-free, Oryctolagus cuniculus; settings: at 0.1 to 300 µg/mL, dose 0.1-300 µg/ml
[21] = Protein binding in dog plasma assessed as fraction unbound at 0.1 to 300 ug/ml using 14C-labeled ligand by rapid equilibrium dialysis; format: ADME, cell-free, Canis lupus familiaris; settings: at 0.1 to 300 µg/mL, dose 0.1-300 µg/ml
[22] = Cmax in Wistar rat at 3 mg/kg,iv or 3 mg/kg, po; format: ADME, organism-based; set-up: dose 3 mg/kg, route iv; settings: in vivo
[23] = Oral bioavailability in Wistar rat at 3 mg/kg; format: ADME, organism-based; settings: in vivo
[24] = Clearance in Wistar rat at 3 mg/kg,iv or 3 mg/kg, po; format: ADME, organism-based; settings: in vivo
[25] = Half life in Wistar rat at 3 mg/kg,iv or 3mg/kg, po; format: ADME, organism-based; settings: in vivo
[26] = Tmax in Cynomolgus monkey at 1.0 mg/kg,iv or 1.25 mg/kg, po; format: ADME, organism-based, Macaca fascicularis; settings: in vivo
[27] = Volume of distribution at steady state in Cynomolgus monkey at 1.0 mg/kg,iv or 1.25 mg/kg, po; format: ADME, organism-based, Macaca fascicularis; settings: in vivo, read-out: Vdss
[28] = Half life in Cynomolgus monkey at 1.0 mg/kg,iv or 1.25 mg/kg, po; format: ADME, organism-based, Macaca fascicularis; settings: in vivo

Cc1ncn(CC(=O)N2CCN(c3sc(C(F)(F)F)nc3-c3cnc(C(F)(F)F)nc3)C[C@H]2CCO)n1
IC50 [1]: 26000 nM | microsomal CLint at 1 µM [2]: < 10 µL/min/mg | IC50 [3]: 2.2 nM | IC50 [4]: 4 nM | Kdiss [5]: 0.03 s⁻¹ | IC50 [6]: 291 nM | IC50 [7]: 56 nM | Activity [8]: inactive | Activity [9]: inactive | Activity [10]: Dose-Dependent Effect | Activity [11]: 45% | Cmax [12]: 173 ng/mL | IC50 [13]: > 50000 nM | inhibition (INH) [14]: Not Active | inhibition (INH) [15]: Not Active | Stability [16]: Unstable | Stability [17]: Unstable | Stability [18]: Unstable | fraction unbound at 20 ug/ml [19]: 0.1 | fraction unbound [20]: 0.1 | fraction unbound [21]: 0.48 | Cmax [22]: 910 ng/mL | bioavailability [23]: 80% | clearance [24]: 9.5 mL/min/kg | half-life [25]: 5.5 h | Tmax [26]: 1.5 h | Vd [27]: 1.3 L/kg | half-life [28]: 4 h
